Measured values: patent US20260216354A1, “ANTI-CMET ANTIBODY, ANTIBODY-DRUG CONJUGATE, AND PREPARATION METHOD THEREFOR AND USE THEREOF” (MEDILINK THERAPEUTICS (SUZHOU) CO., LTD., priority 2022, published 2026)

Legend:
SW480 cells = assay: In-vitro killing activity Test 1 (CCK8), SW480; type: cell-based, human; conditions: 7 days, read-out: EC50 of ADC killing (nM) SW480
From the text: (§1) Tumor cells in a good growth status are collected by digestion and centrifugation, SW480 (purchased from ATCC, Cat. No. CCL-228), NCI-H358 (purchased from ATCC, Cat. No. CRL-5807), LS1034 cells (Nanjing Cobioer Biosciences Co., Ltd., Cat. No. CBP60013), NCI-H716 (purchased from ATCC, Cat. No. CCL-251) cells are directly collected by centrifugation, the foregoing cells are all resuspended with RPMI 1640+5% FBS+Ps, and are counted, and 5000 (LS1034 and NCI-H716) or 3000 (SW480 and NCI-H358) cells are plated in each well in a volume of 100 uL; ADCs to be tested are diluted separately with resuspension media corresponding to the foregoing 3 types of cells, starting at 300 µg/mL ([…]) for 3-fold dilution with 11 concentration points, and added into a plate with 100 µL/well, to make the ADCs have a final concentration of 150 µg/mL, for incubation at 37° C. for 5 days (LS1034 and NCI-H358) or 7 days (NCI-H716 and SW480); after the incubation is completed, CCK8 is added with 20 µL/well, for a reaction for 1-3 hours; and values are read out at 450 nm by a microplate reader and imported into Graphpad Prism for curve-fitting.

NCI-H716 cells [1] = assay: In-vitro killing activity Test 1 (CCK8), NCI-H716; type: cell-based, human; conditions: 7 days, read-out: EC50 of ADC killing (nM) NCI-H716
From the text: as §1

[2] = system: human colon cancer SW480 cell lines; assay: In-vivo efficacy in SW480 CDX models; parameters: species or system mouse; conditions: 5 mg/kg, i.v., QW*2, SW480 CDX
From the text: (§2) To verify the in-vivo efficacy of the anti-human cMet ADC drugs and evaluate the anti-tumor effects of the tested drugs in female Balb/c Nude mouse models subjected to subcutaneous xenografts, 5-6 week old female Balb/c Nude mice (Vital River) are purchased, human non-small cell lung cancer NCI-H358 cells that have grown to the logarithmic growth phase are digested with EDTA and then resuspended with PBS, each mouse is subcutaneously inoculated with 5*10^6 cells, and when the tumor grows to a size of […], intravenous administration is performed once a week with 1 mg/kg or 3 mg/kg each time.
A similar method is used to evaluate the anti-tumor effects of anti-cMet ADC test drugs in female BALB/c nude mouse animal models subjected to subcutaneous xenografts of human colon cancer SW480 cell lines.

NCI-H716 cells [3] = assay: Flow cell affinity of ADCs, NCI-H716; type: binding, human; conditions: flow cytometry
[4] = system: human colorectal adenocarcinoma NCI-H716 cell lines; assay: In-vivo efficacy in NCI-H716 CDX models; parameters: species or system mouse; conditions: i.v., QW*3, NCI-H716 CDX
From the text: as §2
A similar method is used to evaluate the anti-tumor effects of cMet ADC test drugs in female BALB/c nude mouse animal models subjected to subcutaneous xenografts of human colorectal adenocarcinoma NCI-H716 cell lines.

LS1034 cells [5] = assay: Flow cell affinity of ADCs, LS1034; type: binding, human; conditions: flow cytometry
NCI-H358 cells [6] = assay: Flow cell affinity of ADCs, NCI-H358; type: binding, human; conditions: flow cytometry
h.cMet-ECD-His [7] = target: T1, h.cMet-ECD-His (Homo sapiens, UniProt P08581); assay: ELISA protein affinity of cMET antibodies before and after conjugating into ADCs; type: binding
T1 construct: a human cMet ectodomain recombinant protein (Human HGF R/c-MET Protein, His Tag); purchased Acrobiosystems Co., Ltd. / ACRO Biosystems MET-H5227
Protocol: Proteins anti-His-Rabbit Fc are coated with the CBS to […], and are blocked with 2% BSA (in PBS) at 37° C. for 2 hours, h.cMet-ECD-His of […] is added for incubation at 37° C. for 2 hours, after 2 hours, antibodies to be tested or ADCs that are gradiently diluted (starting at […] for 3-fold dilution with 11 concentration points) are added for incubation at 37° C. for 2 hours, after 2 hours, HRP-labeled anti-human specific secondary antibodies (Jackson, 115-035-164) are added for incubation at 37° C. for 1 hour, a TMB substrate is added for color development, and after the color development is stopped using HCl of 2M, final products are added into a machine to read out absorbance values at […].

[8] = system: human non-small cell lung cancer NCI-H358 cells; assay: In-vivo efficacy in NCI-H358 CDX models (Test 1); parameters: species or system mouse; conditions: 1 mg/kg, i.v., QW*3, NCI-H358 CDX
From the text: as §2

LS1034 cells [9] = assay: In-vitro killing activity Test 1 (CCK8), LS1034; type: cell-based, human; conditions: 5 days, read-out: EC50 of ADC killing (nM) LS1034
From the text: as §1

NCI-H69 cells = assay: Flow cell affinity of ADCs, NCI-H69; type: binding, human; conditions: flow cytometry
NCI-H358 cells [10] = assay: In-vitro killing activity Test 1 (CCK8), NCI-H358; type: cell-based, human; conditions: 5 days, read-out: EC50 of ADC killing (nM) NCI-H358
From the text: as §1

[11] = system: cynoMet (cyno.cMet-ECD-His); assay: ELISA affinity of humanized antibodies to cyno Met; type: binding; conditions: cyno.cMet-ECD-His captured
From the text: […]

h.cMet (cMet-ECD-his) = target: T2, h.cMet (cMet-ECD-his) (Homo sapiens, UniProt P08581); assay: ELISA affinity of humanized antibodies to human cMet; type: binding; conditions: cMet-ECD-his coated
T2 construct: a human cMet ectodomain recombinant protein (Human HGF R/c-MET Protein, His Tag); purchased Acrobiosystems Co., Ltd. / ACRO Biosystems MET-H5227
From the text: […]

[12] = target: T3, (Homo sapiens, UniProt P08581); assay: FACS competition of humanized antibodies with HGF ligand on MKN45 cells; type: binding; conditions: HGF-His-biotin 50 ng/ml
T3 construct: MKN45 cells expressing c-MET antigens; endogenous in cells; host or cells: MKN45
Protocol: (§3) Therefore, competitive actions of the humanized antibodies on ligand binding and actions of inhibiting HGF-induced ERK phosphorylation are detected.
(§4) MKN45 cells are collected by trypsin digestion and centrifugation, and are washed three times with a pre-cooled PBS, the cells are resuspended with 1% BSA (in PBS), and are plated into a 96-well conical bottom plate with 2^10^5 cells (50 ul) per well, anti-cMet humanized antibodies are gradiently diluted with 1% BSA, starting at 15 μg/ml to a final concentration from 5 μg/ml with a 3-fold dilution gradient and 8 dilution points, 50 ul diluted antibodies are mixed well with the cells in the conical bottom plate, HGF-His-biotin (from Chengdu NB Biolab Co., Ltd.) is diluted with 1% BSA to 150 ng/ml, and is added into the well plate with 50 ul/well, to make a final concentration of ligands of 50 ng/ml, for incubation at 4° C. for 1 hour after fully mixing, after three times of washing with the pre-cooled PBS, 100 ul of 1% BSA (containing 1 uL anti-biotin PE fluorescent secondary antibodies, BioLegend, Cat. No. 405204) is added to each well for incubation at 4° C. for 0.5 hours, and after three times of washing with the pre-cooled PBS, the cells are resuspended and detected by a flow cytometer (Beckman, cytoflex).

[13] = target: T4, HGF ligand on MKN45 cells (Homo sapiens, UniProt P08581); assay: as above; type: binding; conditions: HGF-His-biotin 50 ng/ml, MKN45
T4 construct: MKN45 cells expressing c-MET antigens; endogenous in cells; host or cells: MKN45
Protocol: as §3, §4

MKN45 cells [14] = assay: Flow affinity of humanized antibodies to MKN45 cells; type: binding, human; conditions: flow cytometry
Protocol: MKN45 cells (Nanjing Cobioer Biosciences Co., Ltd., CBP60488) are collected by trypsin digestion and centrifugation, and are washed three times with a pre-cooled PBS, the cells are resuspended with 1% BSA (in the PBS), and are plated into a 96-well conical bottom plate with 2^10^5 cells (50 ul) per well, anti-cMet humanized antibodies to be tested are gradiently diluted with 1% BSA starting at 20 μg/ml with a 4-fold dilution gradient and 8 concentration points, 50 ul diluted antibodies are mixed well with the cells in the conical bottom plate for incubation at 4° C. for 1 hour, after three times of washing with the pre-cooled PBS, 100 ul of 1% BSA (containing 1 uL anti-human APC fluorescent secondary antibodies, BioLegend, Cat. No. 410712) is added to each well for incubation at 4° C. for 0.5 hours, and after three times of washing with the pre-cooled PBS, the cells are resuspended for detection by a flow cytometer (Beckman, cytoflex).

MKN45 cells [15] = assay: Endocytic activity on MKN45 cells; type: cell-based, human; conditions: 10 μg/mL, 37° C.
Protocol: MKN45 cells are collected by trypsin digestion and centrifugation, incubated with humanized antibodies to be detected of a concentration of 10 μg/mL at 4° C. for 1 hour, and washed 3 times with the PBS, the cells are resuspended with DMEM+10% FBS that has been pre-warmed at 37° C., […], after 3 times of washing with a pre-cooled PBS, 1.2 uL of anti-human APC fluorescent secondary antibodies are added for incubation at 4° C. for 0.5 hours, and after three times of washing with the PBS, the cells are resuspended and added into a machine. Endocytosis rates are calculated according to the following formula: endocytosis rate (%)= ? 1−(an average fluorescence value of a test sample at this time point−an average fluorescence value of a negative control sample at this time point)/(an average fluorescence value of the test sample at 0 hour−an average fluorescence value of the negative control sample at 0 hour) ? * 100.

h.cMet-ECD-His [16] = target: T1, h.cMet-ECD-His; assay: ForteBio dynamic affinity to h.cMet-ECD-His; type: binding; conditions: ProA sensor
Protocol: Dynamic affinities of the humanized antibodies are assayed through ForteBio. Experimental steps are as follows: 1. sensor preparation: taking out a ProA sensor, and pre-wetting the sensor with a PBST diluent (pH 7.4) for 10 min; 2. sample dilution: separately diluting antibodies that need to be solidified to 5 μg/ml, antigens h.cMet-ECD-His (Acrobiosystems Co., Ltd., Cat. No.: MET-H5227) starting at 500 nM for 2-fold dilution with 5 concentration points and a 0 concentration point set; 3. setting a program, putting a sensor plate and a sample plate away, starting the program, and the sensor being regenerated with a glycine solution of 20 mM (pH 1.7); 4. using Octet analysis software to analyse data.

T1 sequence (P08581 25-932 limits assumed): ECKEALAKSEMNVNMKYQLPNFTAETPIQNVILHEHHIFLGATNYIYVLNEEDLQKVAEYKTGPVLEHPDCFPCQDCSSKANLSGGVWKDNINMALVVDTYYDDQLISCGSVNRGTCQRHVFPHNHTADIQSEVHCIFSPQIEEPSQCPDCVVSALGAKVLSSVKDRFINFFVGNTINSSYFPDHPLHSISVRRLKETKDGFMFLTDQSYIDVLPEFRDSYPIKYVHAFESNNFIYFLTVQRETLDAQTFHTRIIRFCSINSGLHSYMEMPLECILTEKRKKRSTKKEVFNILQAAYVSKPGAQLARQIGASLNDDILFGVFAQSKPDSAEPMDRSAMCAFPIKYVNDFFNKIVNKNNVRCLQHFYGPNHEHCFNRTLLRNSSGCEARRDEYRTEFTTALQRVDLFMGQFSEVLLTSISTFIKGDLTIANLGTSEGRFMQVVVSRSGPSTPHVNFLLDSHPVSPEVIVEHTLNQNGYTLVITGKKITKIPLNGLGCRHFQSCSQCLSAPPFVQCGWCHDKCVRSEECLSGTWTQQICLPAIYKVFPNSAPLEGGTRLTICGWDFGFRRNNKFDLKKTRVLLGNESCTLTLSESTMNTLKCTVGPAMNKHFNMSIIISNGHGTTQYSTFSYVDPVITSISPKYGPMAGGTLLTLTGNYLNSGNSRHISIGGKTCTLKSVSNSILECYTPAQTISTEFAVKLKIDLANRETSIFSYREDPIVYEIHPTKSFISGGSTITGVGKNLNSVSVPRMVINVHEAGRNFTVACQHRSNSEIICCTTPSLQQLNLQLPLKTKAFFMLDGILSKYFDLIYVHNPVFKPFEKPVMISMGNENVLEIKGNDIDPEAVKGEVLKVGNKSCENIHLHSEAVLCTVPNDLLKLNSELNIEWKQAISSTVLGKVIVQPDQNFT
T2 sequence (P08581 25-932 limits assumed): as above
T3 sequence (P08581 25-1390): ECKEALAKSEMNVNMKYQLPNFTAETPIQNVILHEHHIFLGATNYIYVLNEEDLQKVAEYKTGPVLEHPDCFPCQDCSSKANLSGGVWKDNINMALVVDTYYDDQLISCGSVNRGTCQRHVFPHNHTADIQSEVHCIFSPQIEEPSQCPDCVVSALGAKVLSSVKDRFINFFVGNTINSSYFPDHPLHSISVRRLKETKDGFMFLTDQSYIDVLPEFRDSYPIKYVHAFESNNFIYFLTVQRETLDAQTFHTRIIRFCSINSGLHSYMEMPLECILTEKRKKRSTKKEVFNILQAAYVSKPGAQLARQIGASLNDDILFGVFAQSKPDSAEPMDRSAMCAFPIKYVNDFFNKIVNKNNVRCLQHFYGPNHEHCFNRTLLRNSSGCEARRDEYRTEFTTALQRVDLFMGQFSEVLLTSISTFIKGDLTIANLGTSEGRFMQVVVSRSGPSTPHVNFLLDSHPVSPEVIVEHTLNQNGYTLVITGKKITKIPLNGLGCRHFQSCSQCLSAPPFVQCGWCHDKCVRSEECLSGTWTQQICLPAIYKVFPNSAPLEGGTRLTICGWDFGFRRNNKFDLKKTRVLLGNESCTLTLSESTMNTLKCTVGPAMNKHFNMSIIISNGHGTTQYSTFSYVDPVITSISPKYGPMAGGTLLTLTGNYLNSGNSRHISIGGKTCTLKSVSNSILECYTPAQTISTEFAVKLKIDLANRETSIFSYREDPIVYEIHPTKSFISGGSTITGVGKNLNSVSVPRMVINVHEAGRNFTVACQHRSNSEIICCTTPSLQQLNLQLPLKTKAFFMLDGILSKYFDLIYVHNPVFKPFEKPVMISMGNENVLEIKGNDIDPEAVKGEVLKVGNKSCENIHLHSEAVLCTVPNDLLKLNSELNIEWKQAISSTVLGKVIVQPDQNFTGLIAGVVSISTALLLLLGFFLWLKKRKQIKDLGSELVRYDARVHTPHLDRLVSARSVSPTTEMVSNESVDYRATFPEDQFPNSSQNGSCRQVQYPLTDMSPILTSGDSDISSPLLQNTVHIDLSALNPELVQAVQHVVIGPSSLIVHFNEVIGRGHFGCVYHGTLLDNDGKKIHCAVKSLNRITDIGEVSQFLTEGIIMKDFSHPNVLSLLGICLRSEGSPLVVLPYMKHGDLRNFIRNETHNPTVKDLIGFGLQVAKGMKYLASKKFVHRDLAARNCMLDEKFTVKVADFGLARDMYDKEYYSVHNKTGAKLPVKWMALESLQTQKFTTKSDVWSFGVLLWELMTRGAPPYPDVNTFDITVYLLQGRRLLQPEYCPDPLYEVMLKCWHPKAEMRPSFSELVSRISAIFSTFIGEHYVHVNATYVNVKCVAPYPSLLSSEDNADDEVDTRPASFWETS
T4 sequence (P08581 25-1390): as above

ABT700-Vc-MMAE (DAR4): ADC of control antibody ABT700 conjugated to vc-MMAE (CAS No.: 646502-53-6), DAR value 4.0 [reference compound]
EC50 (SW480 cells): 71.6 nM
EC50 (NCI-H716 cells [1]): 288 nM
TGI (%) on Day 15 [2]: 15.06%
EC50 (NCI-H716 cells [3]): 11.6 nM
NCI-H716 Maximum signal value (NCI-H716 cells [3]): 3737
TGI (%) on Day 14 ([4]; 0.3 mg/kg): 1.7%
TGI (%) on Day 14 ([4]; 1 mg/kg): 3.5%

ABT700-Vc-MMAE (DAR9.7): ADC of control antibody ABT700 conjugated to vc-MMAE (CAS No.: 646502-53-6), DAR value 9.7 [reference compound]
EC50 (LS1034 cells [5]): 0.852 nM
LS1034 Maximum signal value (LS1034 cells [5]): 8960
EC50 (NCI-H358 cells [6]): 0.917 nM
NCI-H358 Maximum signal value (NCI-H358 cells [6]): 32386
EC50 (h.cMet-ECD-His [7]): 2.432 µg/mL
TGI (%) on Day 14 [8]: 84.6%
EC50 (LS1034 cells [9]): 53.7 nM
EC50 (NCI-H69 cells): 0.212 nM
NCI-H69 Maximum signal value (NCI-H69 cells): 8214
EC50 (NCI-H358 cells [10]): > 10000 nM

ABT700: control anti-c-Met antibody with a sequence from KEGG, ID: D11307 [reference compound]
cynoMet EC50 [11]: 0.1434 µg/mL
h.cMet EC50 (h.cMet (cMet-ECD-his)): 0.004148 µg/mL
EC50 (h.cMet-ECD-His [7]): 0.005257 µg/mL
MKN45 IC50 [12]: 0.167 µg/mL
Maximum inhibition rate % [13]: 75%
MKN45 EC50 (MKN45 cells [14]): 0.1004 µg/mL
Maximum signal value (MKN45 cells [14]; MKN45): 70415
Endocytosis rate % (MKN45 cells [15]; 1 h): 7.9%
Endocytosis rate % (MKN45 cells [15]; 2 h): 19.2%
Endocytosis rate % (MKN45 cells [15]; 4 h): 44.5%
ka (h.cMet-ECD-His [16]): 169000 M⁻¹ s⁻¹
kdis (h.cMet-ECD-His [16]): 3.91e-07 s⁻¹
